Experimental data taken from patent US20240182457A1, “OXADIAZOLE-SUBSTITUTED SPIROCYCLIC COMPOUND AND APPLICATION THEREOF” (HELIOEAST PHARMACEUTICAL CO., LTD., priority 2021, published 2024).

Target: T1, S1PR1 (Homo sapiens, UniProt P21453)
T1 construct: expressed in transfected cells
Experiment: In vitro agonist activity on S1PR1 (PathHunter cell line, chemiluminescence)
Type: cell-based
Method: Test example 1: Evaluating the in vitro agonist activity of the compound of the present disclosure on S1PR1
Experimental purpose: To assess the agonist activity of the compound on S1PR1
I. Cell Treatment • 1. The PathHunter cell line was thawed according to standard procedures. • 2. The cells were seeded in a 384-well plate with a volume of 20 μL, and incubated at 37° C. for an appropriate duration.
II. Agonist • 1. For the agonist evaluation, the cells were co-cultured with the test samples to induce a reaction. • 2. The test stock solution was diluted 5-fold using the buffer. • 3. 5 μL of the 5-fold diluted solution was added to the cells, and incubated at 37° C. for 90 to 180 minutes. The vehicle concentration was maintained at 1%.
III. Signal Detection • 1. Either 12.5 μL or 15 μL of the PathHunter detection reagent (at a 50% v/v ratio) was added each time, followed by a 1-hour incubation at room temperature to allow for detection signal generation. • 2. Chemiluminescence signal detection was conducted using a PerkinElmer Envision™ microplate reader.
IV. Data Analysis • 1. The activity of the compound was analyzed using the CBIS suite for data analysis (ChemInnovation, CA). • 2. Formula for calculation:
% Activity=100%× (Average sample RLU—Average vehicle RLU)/(Average maximum control ligand RLU—Average vehicle RLU)

T1 sequence (P21453 whole entry): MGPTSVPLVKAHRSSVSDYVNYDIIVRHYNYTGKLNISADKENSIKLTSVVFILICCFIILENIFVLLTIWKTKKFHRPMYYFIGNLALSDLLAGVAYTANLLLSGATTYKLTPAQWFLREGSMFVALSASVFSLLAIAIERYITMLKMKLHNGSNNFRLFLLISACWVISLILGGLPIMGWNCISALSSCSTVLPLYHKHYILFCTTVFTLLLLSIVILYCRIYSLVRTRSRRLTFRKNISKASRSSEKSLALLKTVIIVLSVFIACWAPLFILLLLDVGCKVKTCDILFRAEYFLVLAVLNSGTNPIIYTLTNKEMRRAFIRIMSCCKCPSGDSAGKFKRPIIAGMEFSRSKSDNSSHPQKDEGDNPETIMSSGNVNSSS

Emax (% Activity relative to maximum control ligand): 110%
EC50 (incubated at 37° C. for 90 to 180 minutes): 0.657 nM
SMILES: CC(C)Oc1cc(-c2nc(-c3cccc4c3CCC43CCN(C(C)(C)CO)C3)no2)ccc1C#N (centres unmarked) [Compound 1]
